From patent US9180120B2, “Substituted N-phenethyltriazoloneacetamides and use thereof” (Bayer Intellectual Property GmbH, priority 2010, dated 2015)

Legend:
[1] = target: human V1a receptor (Homo sapiens (Human), UniProt P37288); assay: Cellular in vitro assay for determining the vasopressin receptor activity (aequorin luminescence, CHO cells, antagonism of [Arg8]-vasopressin); assay type: cell-based; settings: cell line transfected with the human V1a receptor; agonist [Arg8]-vasopressin; read-out: IC50 hV1a
Text: (§1) • EDTA ethylenediaminetetraacetic acid • DMEM Dulbecco's Modified Eagle Medium • FCS foetal calf serum • HEPES 4-(2-hydroxyethyl)-1-piperazineethanesulphonic acid • SmGM Smooth Muscle Cell Growth Media • Tris-HCl 2-amino-2-(hydroxymethyl)-1,3-propanediol hydrochloride B-1. Cellular in vitro Assay for Determining the Vasopressin Receptor Activity
(§2) The identification of agonists and antagonists of the V1a and V2 vasopressin receptors from humans and rats and also the quantification of the activity of the compounds of the invention takes place using recombinant cell lines. […] In addition, the cells are stably transfected with the human or rat V1a or V2 receptors.
(§3) On the day before the assay, the cells are plated out in culture medium (DMEM, 10% FCS, 2 mM glutamine, 10 mM HEPES) in 384-well microtitre plates and kept in a cell incubator (96% humidity, 5% v/v CO2, 37° C.). On the day of the assay, the culture medium is replaced by a Tyrode solution (140 mM NaCl, 5 mM KCl, 1 mM MgCl2, 2 mM CaCl2, 20 mM glucose, 20 mM HEPES), which additionally contains the cofactor coelenterazine (50 μM), and the microtitre plate is then incubated for a further 3-4 hours. The test substances in various concentrations are placed for 10 to 20 minutes in the wells of the microtitre plate before the agonist [Arg^8]-vasopressin is added, and the resulting light signal is measured immediately in the luminometer.

[2] = target: human V2 receptor (Homo sapiens (Human), UniProt P30518); assay: as above; assay type: cell-based; settings: cell line transfected with the human V2 receptor; agonist [Arg8]-vasopressin; read-out: IC50 hV2
Text: as §1, §2, §3

Sequence of human V2 receptor (P30518 whole entry): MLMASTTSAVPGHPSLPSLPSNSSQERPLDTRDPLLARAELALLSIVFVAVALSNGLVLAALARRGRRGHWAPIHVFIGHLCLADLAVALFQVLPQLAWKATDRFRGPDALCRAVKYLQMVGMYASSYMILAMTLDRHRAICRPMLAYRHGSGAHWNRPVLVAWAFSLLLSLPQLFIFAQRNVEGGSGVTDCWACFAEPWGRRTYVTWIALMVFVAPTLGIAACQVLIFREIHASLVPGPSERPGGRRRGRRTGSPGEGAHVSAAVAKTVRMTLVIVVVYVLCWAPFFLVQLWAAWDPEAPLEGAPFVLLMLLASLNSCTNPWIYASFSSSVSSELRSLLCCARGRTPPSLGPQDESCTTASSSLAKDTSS
Sequence of human V1a receptor (P37288 whole entry): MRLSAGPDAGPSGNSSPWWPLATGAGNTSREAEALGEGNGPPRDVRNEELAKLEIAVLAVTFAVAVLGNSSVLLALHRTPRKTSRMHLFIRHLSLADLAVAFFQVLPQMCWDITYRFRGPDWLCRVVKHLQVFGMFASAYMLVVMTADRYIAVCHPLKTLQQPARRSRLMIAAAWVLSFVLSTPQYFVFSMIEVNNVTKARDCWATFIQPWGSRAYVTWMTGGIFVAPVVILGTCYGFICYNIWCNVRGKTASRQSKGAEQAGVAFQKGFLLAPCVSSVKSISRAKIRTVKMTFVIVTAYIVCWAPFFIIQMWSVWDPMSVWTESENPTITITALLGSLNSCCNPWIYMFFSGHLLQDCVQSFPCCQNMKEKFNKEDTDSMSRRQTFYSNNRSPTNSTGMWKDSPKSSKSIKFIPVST

Structure (SMILES)	IC50 [1]	IC50 [2]
NC(=O)NC(CNC(=O)Cn1nc(-c2ccc(Cl)cc2)n(C[C@H](O)C(F)(F)F)c1=O)c1ccccc1Cl (single isomer, unassigned) [Example 33]	17 nM	8 nM
NC(=O)OCC(CNC(=O)Cn1nc(-c2ccc(Cl)cc2)n(C[C@H](O)C(F)(F)F)c1=O)c1ccccc1Cl (single isomer, unassigned) [Example 6]	12 nM	
NC(=O)OCC(CNC(=O)Cn1nc(-c2ccc(Cl)cc2)n(C[C@H](O)C(F)(F)F)c1=O)c1ccccc1C(F)(F)F (single isomer, unassigned) [Example 2]	1 nM	16 nM
NC(=O)OC(CNC(=O)Cn1nc(-c2ccc(Cl)cc2)n(C[C@H](O)C(F)(F)F)c1=O)c1ccccc1Cl (stereo partly drawn) [Example 47, 1-(2-Chlorophenyl)-2-[({3-(4-chlorophenyl)-5-oxo-4-[(2S)-3,3,3-trifluoro-2-hydroxypropyl]-4,5-dihydro-1H-1,2,4-triazol-1-yl}acetyl)amino]ethyl carbamate]	5 nM	2 nM
NC(=O)OC(CNC(=O)Cn1nc(-c2ccc(Cl)cc2)n(C[C@H](O)C(F)(F)F)c1=O)c1ccccc1C(F)(F)F (single isomer, unassigned) [Example 42]	8 nM	3 nM
CC(=O)NC(C)(CNC(=O)Cn1nc(-c2ccc(Cl)cc2)n(C[C@H](O)C(F)(F)F)c1=O)c1cccc(C(F)(F)F)c1 (single isomer, unassigned) [Example 39]	25 nM	10 nM
CS(=O)(=O)NC(CNC(=O)Cn1nc(-c2ccc(Cl)cc2)n(C[C@H](O)C(F)(F)F)c1=O)c1ccccc1Cl (stereo partly drawn) [Example 25, N-{2-(2-Chlorophenyl)-2-[(methylsulphonyl)amino]ethyl}-2-{3-(4-chlorophenyl)-5-oxo-4-[(2S)-3,3,3-trifluoro-2-hydroxypropyl]-4,5-dihydro-1H-1,2,4-triazol-1-yl}acetamide]	8 nM	5 nM
CC(C)(C)OC(=O)NC(CNC(=O)Cn1nc(-c2ccc(Cl)cc2)n(C[C@H](O)C(F)(F)F)c1=O)c1cccc(Cl)c1Cl (single isomer, unassigned) [Example 19]		11 nM
CCNC(=O)OCC(CNC(=O)Cn1nc(-c2ccc(Cl)cc2)n(C[C@H](O)C(F)(F)F)c1=O)c1cccc(C(F)(F)F)c1 (stereo partly drawn) [Example 10, 3-[({3-(4-Chlorophenyl)-5-oxo-4-[(2S)-3,3,3-trifluoro-2-hydroxypropyl]-4,5-dihydro-1H-1,2,4-triazol-1-yl}acetyl)amino]-2-[3-(trifluoromethyl)phenyl]propyl ethylcarbamate]	24 nM	9 nM
NC(=O)OCC(CNC(=O)Cn1nc(-c2ccc(Cl)cc2)n(C[C@H](O)C(F)(F)F)c1=O)c1cccc(C(F)(F)F)c1 (single isomer, unassigned) [Example 9]	63 nM	5 nM
O=CNC(CNC(=O)Cn1nc(-c2ccc(Cl)cc2)n(C[C@H](O)C(F)(F)F)c1=O)c1cccc(C(F)(F)F)c1 (stereo partly drawn) [Example 36, 2-{3-(4-Chlorophenyl)-5-oxo-4-[(2S)-3,3,3-trifluoro-2-hydroxypropyl]-4,5-dihydro-1H-1,2,4-triazol-1-yl}-N-{2-formamido-2-[3-(trifluoromethyl)phenyl]ethyl}acetamide]	19 nM	13 nM
CC(C)(C)OC(=O)NC(CNC(=O)Cn1nc(-c2ccc(Cl)cc2)n(C[C@H](O)C(F)(F)F)c1=O)c1ccccc1C(F)(F)F (stereo partly drawn) [Example 13, tert-Butyl {2-[({3-(4-chlorophenyl)-5-oxo-4-[(2S)-3,3,3-trifluoro-2-hydroxypropyl]-4,5-dihydro-1H-1,2,4-triazol-1-yl}acetyl)amino]-1-[2-(trifluoromethyl)phenyl]ethyl}carbamate]	4 nM	70 nM

Next, values leading:

IC50 [1]	IC50 [2]	Structure (SMILES)
4 nM	15 nM	O=C(Cn1nc(-c2ccc(Cl)cc2)n(C[C@H](O)C(F)(F)F)c1=O)N[C@@H](CO)Cc1cccc(C(F)(F)F)c1 [Example 53, 2-{3-(4-Chlorophenyl)-5-oxo-4-[(2S)-3,3,3-trifluoro-2-hydroxypropyl]-4,5-dihydro-1H-1,2,4-triazol-1-yl}-N-{(2R)-1-hydroxy-3-[3-(trifluoromethyl)phenyl]propan-2-yl}acetamide]
51 nM	1200 nM	COCCn1c(-c2ccc(Cl)s2)nn(CC(=O)NCC(NC(=O)OC(C)(C)C)c2ccccc2C(F)(F)F)c1=O (racemic) [Example 66, tert-Butyl {2-({[3-(5-chloro-2-thienyl)-4-(2-methoxyethyl)-5-oxo-4,5-dihydro-1H-1,2,4-triazol-1-yl]acetyl}amino)-1-[2-(trifluoromethyl)phenyl]ethyl}carbamate]
7 nM	2 nM	NC(=O)OC(CNC(=O)Cn1nc(-c2ccc(Cl)cc2)n(C[C@H](O)C(F)(F)F)c1=O)c1cccc(Cl)c1Cl (single isomer, unassigned) [Example 52]
18 nM	300 nM	CC(C)(C)OC(=O)NC(CNC(=O)Cn1nc(-c2ccc(Cl)s2)n(Cc2ccccc2F)c1=O)c1ccccc1C(F)(F)F (racemic) [Example 67, tert-Butyl {2-({[3-(5-chloro-2-thienyl)-4-(2-fluorobenzyl)-5-oxo-4,5-dihydro-1H-1,2,4-triazol-1-yl]acetyl}amino)-1-[2-(trifluoromethyl)phenyl]ethyl}carbamate]
130 nM	3500 nM	COCCn1c(-c2ccc(Cl)s2)nn(CC(=O)NCC(NS(C)(=O)=O)c2ccccc2C(F)(F)F)c1=O (racemic) [Example 69, 2-[3-(5-Chloro-2-thienyl)-4-(2-methoxyethyl)-5-oxo-4,5-dihydro-1H-1,2,4-triazol-1-yl]-N-{2-[(methylsulphonyl)amino]-2-[2-(trifluoromethyl)phenyl]ethyl}acetamide]
10 nM	22 nM	NC(=O)OC(CNC(=O)Cn1nc(-c2ccc(Cl)cc2)n(Cc2ccccc2F)c1=O)c1ccccc1Cl (racemic) [Example 57, 1-(2-Chlorophenyl)-2-({[3-(4-chlorophenyl)-4-(2-fluorobenzyl)-5-oxo-4,5-dihydro-1H-1,2,4-triazol-1-yl]acetyl}amino)ethyl carbamate]
14 nM	48 nM	NC(=O)OC(CNC(=O)Cn1nc(-c2ccc(Cl)cc2)n(CCC(F)(F)F)c1=O)c1ccccc1Cl (racemic) [Example 59, 1-(2-Chlorophenyl)-2-({[3-(4-chlorophenyl)-5-oxo-4-(3,3,3-trifluoropropyl)-4,5-dihydro-1H-1,2,4-triazol-1-yl]acetyl}amino)ethyl carbamate]
